In the supplement of paper PMC10883282:

How the values were obtained:
Assay in all cases: relative viability vs DMSO control (72 h) (fraction); higher = more viable cells
G401 = tested on: G401
In short: (§1)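 Densities for seeding sarcoma cell lines into 384-well plates were set to give 80–90% confluence. After 24 h, 2.5 µl of serially diluted compound from source plates of 10 mM to 0.0002 mM went in, and plates stayed 72 h at 37 °C in 5% CO2 with 0.1% DMSO vehicle and a 5 µM positive control. Percent growth from ATPLite readings, averaged over up to triplicate wells, served as relative viability, rescaled so 1 means full and 0 means none.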

HT1080 = tested on: HT1080
In short: as §1

KHOS-NP = tested on: KHOS-NP
In short: as §1

MES-SA = tested on: MES-SA
In short: as §1

RD-ES = tested on: RD-ES
In short: as §1

RD = tested on: RD
In short: as §1

SK-ES-1 = tested on: SK-ES-1
In short: as §1

SK-LMS-1 = tested on: SK-LMS-1
In short: as §1

SW1353 = tested on: SW1353
In short: as §1

SW684 = tested on: SW684
In short: as §1

SW872 = tested on: SW872
In short: as §1

VA-ES-BJ = tested on: VA-ES-BJ
In short: as §1

Cn1cc(C2=C(c3cn(C4CCN(Cc5ccccn5)CC4)c4ccccc34)C(=O)NC2=O)c2ccccc21 [Enzastaurin]
Settings | relative viability
G401, 0.00017 µM | 1.08
G401, 0.00051 µM | 1.1
G401, 0.00152 µM | 1.07
G401, 0.00457 µM | 1.04
G401, 0.01372 µM | 1.05
G401, 0.04115 µM | 1.05
G401, 0.1235 µM | 1.09
G401, 0.3704 µM | 1.06
G401, 1.111 µM | 1.13
G401, 3.333 µM | 1.21
G401, 10 µM | 1.31
HT1080, 0.00017 µM | 1.14
HT1080, 0.00051 µM | 1.14
HT1080, 0.00152 µM | 1.11
HT1080, 0.00457 µM | 1.11
HT1080, 0.01372 µM | 1.12
HT1080, 0.04115 µM | 1.14
HT1080, 0.1235 µM | 1.14
HT1080, 0.3704 µM | 1.11
HT1080, 1.111 µM | 1.15
HT1080, 3.333 µM | 1.37
HT1080, 10 µM | 1.365
KHOS-NP, 0.00017 µM | 1.12
KHOS-NP, 0.00051 µM | 1.13
KHOS-NP, 0.00152 µM | 1.12
KHOS-NP, 0.00457 µM | 1.131
KHOS-NP, 0.01372 µM | 1.14
KHOS-NP, 0.04115 µM | 1.12
KHOS-NP, 0.1235 µM | 1.13
KHOS-NP, 0.3704 µM | 1.12
KHOS-NP, 1.111 µM | 1.11
KHOS-NP, 3.333 µM | 1.1
KHOS-NP, 10 µM | 1.1
MES-SA, 0.00017 µM | 1.01
MES-SA, 0.00051 µM | 0.997
MES-SA, 0.00152 µM | 0.994
MES-SA, 0.00457 µM | 0.99
MES-SA, 0.01372 µM | 0.959
MES-SA, 0.04115 µM | 1.003
MES-SA, 0.1235 µM | 0.942
MES-SA, 0.3704 µM | 0.97
MES-SA, 1.111 µM | 0.952
MES-SA, 3.333 µM | 0.964
MES-SA, 10 µM | 0.659
RD, 0.00017 µM | 1.08
RD, 0.00051 µM | 1.07
RD, 0.00152 µM | 1.08
RD, 0.00457 µM | 1.1
RD, 0.01372 µM | 1.1
RD, 0.04115 µM | 1.09
RD, 0.1235 µM | 1.1
RD, 0.3704 µM | 1.1
RD, 1.111 µM | 1.12
RD, 3.333 µM | 1.1
RD, 10 µM | 0.978
RD-ES, 0.00017 µM | 0.992
RD-ES, 0.00051 µM | 0.997
RD-ES, 0.00152 µM | 1
RD-ES, 0.00457 µM | 1.01
RD-ES, 0.01372 µM | 0.996
RD-ES, 0.04115 µM | 1.01
RD-ES, 0.1235 µM | 1.01
RD-ES, 0.3704 µM | 0.981
RD-ES, 1.111 µM | 1.02
RD-ES, 3.333 µM | 1.02
RD-ES, 10 µM | 1.04
SK-ES-1, 0.00017 µM | 1.09
SK-ES-1, 0.00051 µM | 1.06
SK-ES-1, 0.00152 µM | 1.11
SK-ES-1, 0.00457 µM | 1.08
SK-ES-1, 0.01372 µM | 1.11
SK-ES-1, 0.04115 µM | 1.08
SK-ES-1, 0.1235 µM | 1.08
SK-ES-1, 0.3704 µM | 1.04
SK-ES-1, 1.111 µM | 1.11
SK-ES-1, 3.333 µM | 1.1
SK-ES-1, 10 µM | 0.914
SK-LMS-1, 0.00017 µM | 1.08
SK-LMS-1, 0.00051 µM | 1.07
SK-LMS-1, 0.00152 µM | 1.07
SK-LMS-1, 0.00457 µM | 1.04
SK-LMS-1, 0.01372 µM | 1.047
SK-LMS-1, 0.04115 µM | 1.071
SK-LMS-1, 0.1235 µM | 1.05
SK-LMS-1, 0.3704 µM | 1.06
SK-LMS-1, 1.111 µM | 0.9757
SK-LMS-1, 3.333 µM | 0.841
SK-LMS-1, 10 µM | 0.746
SW684, 0.00017 µM | 1.17
SW684, 0.00051 µM | 1.18
SW684, 0.00152 µM | 1.22
SW684, 0.00457 µM | 1.18
SW684, 0.01372 µM | 1.2
SW684, 0.04115 µM | 1.17
SW684, 0.1235 µM | 1.17
SW684, 0.3704 µM | 1.18
SW684, 1.111 µM | 1.11
SW684, 3.333 µM | 0.956
SW684, 10 µM | 0.944
SW872, 0.00017 µM | 1.07
SW872, 0.00051 µM | 1.09
SW872, 0.00152 µM | 1.08
SW872, 0.00457 µM | 1.06
SW872, 0.01372 µM | 1.01
SW872, 0.04115 µM | 1.08
SW872, 0.1235 µM | 1.04
SW872, 0.3704 µM | 1.09
SW872, 1.111 µM | 1.05
SW872, 3.333 µM | 1.06
SW872, 10 µM | 0.96
SW1353, 0.00017 µM | 1.1
SW1353, 0.00051 µM | 1.09
SW1353, 0.00152 µM | 1.104
SW1353, 0.00457 µM | 1.1
SW1353, 0.01372 µM | 1.08
SW1353, 0.04115 µM | 1.09
SW1353, 0.1235 µM | 1.07
SW1353, 0.3704 µM | 1.04
SW1353, 1.111 µM | 0.949
SW1353, 3.333 µM | 0.857
SW1353, 10 µM | 0.809
VA-ES-BJ, 0.00017 µM | 1.08
VA-ES-BJ, 0.00051 µM | 1.12
VA-ES-BJ, 0.00152 µM | 1.11
VA-ES-BJ, 0.00457 µM | 1.09
VA-ES-BJ, 0.01372 µM | 1.07
VA-ES-BJ, 0.04115 µM | 1.06
VA-ES-BJ, 0.1235 µM | 1.06
VA-ES-BJ, 0.3704 µM | 1.08
VA-ES-BJ, 1.111 µM | 1.11
VA-ES-BJ, 3.333 µM | 1.19
VA-ES-BJ, 10 µM | 1.21
